# Experimental data published in paper PMC4549746, “Zearalenone in the Intestinal Tissues of Immature Gilts Exposed per os to Mycotoxins” (Toxins, 2015).
# “And” between values parts separate entries of the source, which are not always exact repeats. Equal values may be shown once.
# Assay: ZEN concentrations and carryover factor in intestinal tissues and liver of pre-pubertal gilts exposed per os (HPLC)
# Assay type: in vivo
# Settings: 40 μg/kg BW daily per os
# Protocol: The animals were divided into an experimental group (E, n = 18) and a control group (C, n = 21). Group E animals were orally administered ZEN at 40 μg/kg BW. Group C pigs were fed a placebo. The animals were fed complete diets in a restricted feeding regimen (Table 1). The daily dose of ZEN (40 µg/kg BW) was administered to each animal individually, which corresponds to exposure to 957–1014 µg ZEN/kg of a complete diet, depending on daily feed intake. Zearalenone was biosynthesized, purified and standardized by the Department of Chemistry of the Poznań University of Life Sciences. The experiment covered a period of 42 days. The mycotoxin was administered per os daily, in gelatine capsules before the morning feeding. The ZEN dose was adjusted to the body weight of the experimental animals. The mycotoxin was administered in capsules to prevent problems associated with uneven feed intake. Mycotoxin samples were diluted in 300 μL of 96% ethyl alcohol (96% ethyl alcohol, SWW 2442-90, Polskie Odczynniki Chemiczne SA, Gliwice, Poland) to the required dose level (based on body weight). Final solutions were stored at room temperature for 12 h to evaporate the solvent. The animals were weighed every 7 days to update mycotoxin doses for each gilt. Three animals from the experimental group and the control group each were sacrificed on Days 1, 7, 14, 21, 28, 35 and 42 (a total of 6 gilts in each week of exposure), excluding day 1, when only 3 control group animals were scarified. Every week, tissue samples were collected from the porcine gastrointestinal tract (duodenum, first and middle sections, jejunum, ileum, cecum, ascending colon, transverse colon, descending colon, middle section, and the liver, left lobe). Tissue samples were collected from the whole intestinal cross-sections.
# Post-mortem tissue samples were collected from the duodenum, jejunum, ileum, cecum, ascending colon, transverse colon, descending colon and the liver after rinsing with phosphate buffer. Pure tissues were stored at −80 °C until shredding and extraction.
# Tissue samples (2 g) were homogenized with 9 cm^3 of methanol for 4 min; they were transferred to centrifuge tubes with a minimal amount of the sediment, and the remainder was combined with 5 cm^3 of methanol and repeatedly homogenized. The extracts were combined and centrifuged for 10 min. The supernatant was transferred to a graduated test tube; its volume was read from the scale, and it was evaporated under a stream of nitrogen at a temperature of 60 °C to 0.1–0.2 cm^3 of water. The evaporated product was combined with 2 cm^3 of deionized water, 2 cm^3 of 0.2 M sodium acetate and 500 µL of […] solution. After 16 h of incubation at 37 °C, the reaction was stopped by adding 0.5 cm^3 of acetonitrile. The mixture was quantitatively transferred to a centrifuge tube; it was combined with 10 cm^3 of deionized water and centrifuged for 10 min at 3500 rpm. The supernatant was applied to the Zearala-Test™ column at the rate of 1–2 drops per second. Mycotoxins were eluted from the column with 1.5 mL of methanol; the solvent was evaporated, and the residue was reconstituted with 1 mL of methanol for HPLC analysis.
# The concentrations of ZEN and its derivatives were determined by HPLC with the use of the Waters 2695 Separations Module, Waters 2475 Multi λ Fluorescence Detector and Waters 2996 Array Detector. Excitation and emission wavelengths were 274 and 440 nm, respectively. The reverse-phase column was C-18 Nova Pak (3.9 × 150 mm), and the mobile phase was acetonitrile-water-methanol (46:46:8, v/v/v) at a flow rate of 0.5 mL·min^−1. The mycotoxins were quantified by measuring the […] of the peaks based on the relevant calibration curves (correlation coefficient of 0.9996 for ZEN, 0.9989 for α-ZEL and 0.9976 for β-ZEL). Detection limits were determined at 0.001 µg·g^−1 for ZEN, 0.003 µg·g^−1 for α-ZEL and 0.002 µg·g^−1 for β-ZEL. […]
# [1] = Week I of exposure, total ZEN dose 280 µg/kg BW
# [2] = Week II of exposure, total ZEN dose 560 µg/kg BW
# [3] = Week III of exposure, total ZEN dose 840 µg/kg BW
# [4] = Week IV of exposure, total ZEN dose 1120 µg/kg BW
# [5] = Week V of exposure, total ZEN dose 1400 µg/kg BW
# [6] = Week VI of exposure, total ZEN dose 1680 µg/kg BW
structure (smiles),measurement,setting,value
"C[C@H]1CCCC(=O)CCC/C=C/c2cc(O)cc(O)c2C(=O)O1 [ZEN, zearalenone]","Carryover Factor (CF), Ascending Colon",[1],0.0054
same,"Carryover Factor (CF), Cecum",[1],0.0162
same,"Carryover Factor (CF), Descending Colon",[1],0.0167
same,"Carryover Factor (CF), Duodenum",[1],0.031
same,"Carryover Factor (CF), Ileum",[1],0.016
same,"Carryover Factor (CF), Jejunum",[1],0.035
same,"Carryover Factor (CF), Liver",[1],0.0225
same,"Carryover Factor (CF), Transverse Colon",[1],0.0049
same,"Carryover Factor (CF), Ascending Colon",[2],0.0028
same,"Carryover Factor (CF), Cecum",[2],0.0075
same,"Carryover Factor (CF), Descending Colon",[2],0.0121
same,"Carryover Factor (CF), Duodenum",[2],0.022
same,"Carryover Factor (CF), Ileum",[2],0.009
same,"Carryover Factor (CF), Jejunum",[2],0.035
same,"Carryover Factor (CF), Liver",[2],0.0139
same,"Carryover Factor (CF), Transverse Colon",[2],0.0082
same,"Carryover Factor (CF), Ascending Colon",[3],0.0037
same,"Carryover Factor (CF), Descending Colon",[3],0.0090
same,"Carryover Factor (CF), Duodenum",[3],0.014
same,"Carryover Factor (CF), Ileum",[3],0.008
same,"Carryover Factor (CF), Jejunum",[3],0.016
same,"Carryover Factor (CF), Liver",[3],0.0154
same,"Carryover Factor (CF), Transverse Colon",[3],0.0046
same,"Carryover Factor (CF), Ascending Colon",[4],0.0042
same,"Carryover Factor (CF), Cecum",[4],0.0030
same,"Carryover Factor (CF), Descending Colon",[4],0.1830
same,"Carryover Factor (CF), Duodenum",[4],0.019
same,"Carryover Factor (CF), Ileum",[4],0.004
same,"Carryover Factor (CF), Jejunum",[4],0.039
same,"Carryover Factor (CF), Liver",[4],0.0162
same,"Carryover Factor (CF), Transverse Colon",[4],0.0065
same,"ZEN Concentrations (x¯ and SD), Ascending Colon",[4],4.69 ± 0.45 ng/g
same,"ZEN Concentrations (x¯ and SD), Descending Colon",[4],205.01 ± 94.70 ng/g
same,"ZEN Concentrations (x¯ and SD), Jejunum",[4],43.82 ± 7.63 ng/g
same,"ZEN Concentrations (x¯ and SD), Transverse Colon",[4],7.37 ± 1.66 ng/g
same,"Carryover Factor (CF), Ascending Colon",[5],0.0024
same,"Carryover Factor (CF), Cecum",[5],0.0129
same,"Carryover Factor (CF), Descending Colon",[5],0.1264
same,"Carryover Factor (CF), Duodenum",[5],0.091
same,"Carryover Factor (CF), Ileum",[5],0.002
same,"Carryover Factor (CF), Jejunum",[5],0.010
same,"Carryover Factor (CF), Liver",[5],0.0142
same,"Carryover Factor (CF), Transverse Colon",[5],0.0046
same,"ZEN Concentrations (x¯ and SD), Cecum",[5],18.17 ± 5.02 ng/g
same,"ZEN Concentrations (x¯ and SD), Duodenum",[5],128 ng/g and 128.18 ± 64.54 ng/g
same,"Carryover Factor (CF), Ascending Colon",[6],0.0014
same,"Carryover Factor (CF), Cecum",[6],0.0081
same,"Carryover Factor (CF), Descending Colon",[6],0.0666
